From patent publication US20100210538A1, “THERAPEUTIC USES OF INTERMEDIN 47 AND 53 PEPTIDES” (priority 2007, published 2010)
Ends that are not written are not given here.

Experiments:
[1] = system: Primary Human endothelial cells (HUVEC); test: Endothelial cell migration assay; assay type: cell-based; details: 10 micrograms per ml, 22 hours
Experimental: Thereafter, designated concentration of testing peptides—10 micrograms per ml—was added in duplicate wells.

[2] = system: spleen cells of Ovalbumin-immunized Balb/c mice; test: Th1/Th2 cytokine profiling assay (Mouse Th1/Th2 Cytokine CBA Kit); assay type: cell-based; details: 10 micrograms per ml; Ovalbumin restimulation, 72 hours
From the text: The Balb/c mice (originated in 1923, it is a popular strain and is used in many different research disciplines. Also classified as an inbred from the production of 20 or more successive brother-sister matings, the Balb/c mouse is albino and small in size) were immunized on Days 1, 15, and 29 with Ovalbumin (Ovalbumin is the main protein found in egg white, commonly used to stimulate an immunological reaction in test animals) in PBS (5 micrograms/injection). On day 50, spleens of the mice were harvested (3 weeks after last boost with Ovalbumin). Cells were cultured (2×10^5/well in triplicate) and incubated with culture medium or test peptides—10 micrograms per ml—for 30 min. Thereafter, additional Ovalbumin was added to the cells at 10 micrograms/ml for in vitro restimulation of the cells. 72 hours later, cell supernatants were harvested and assayed using the Becton Dickinson Mouse Th1/Th2 Cytokine CBA Kit.

HCMV strain AD169 = test: HCMV plaque formation assay in MRC-5 cells; details: for inhibition of HCMV plaque formation as compared to the virus control experiment: 10 micrograms per ml, 7-10 days
From the text: Cells were split twic a week 1:2.
Ganciclovir was used as positive control.

RAW 264.7 cells = test: Phagocytosis assay (Fluorescein-labeled Escherichia coli, flow cytometry); details: 10 micrograms per ml, Fluorescein-labeled E. coli, 60 min
HUVEC = test: Endothelial tube formation assay; assay type: cell-based, human; details: 10 micrograms per ml, 20 hours
From the text: Positive control was vehicle only. […] Raw data were expressed as average tubule lenghs in pixels±standard deviation.

[3] = system: hepatitis B virus (HBV) ayw strain; test: HBV assay, secreted HBV DNA by TaqMan PCR in HepG2-2.2.15 cells; assay type: cell-based; details: 10 micrograms per ml, six days
Experimental: HepG2-2.2.15 is a stable cell line containing the hepatitis B virus (HBV) ayw strain genome (ATCC Cat. No. CRL-11997). […] After 16-24 hours the confluent monolayer of HepG2-2.2.15 cells was washed and the medium was replaced with complete medium containing test peptides-10 micrograms per ml—in duplicate. […] Three days later the culture medium was replaced with fresh medium containing the peptides. Six days following the initial administration of the peptides, the cell culture supernatants was collected, treated with pronase and DNAse and then used in a real-time quantitative TaqMan PCR assay. The PCR-amplified HBV DNA was detected in real-time by monitoring increases in fluorescence signals that result from the exonucleolytic degradation of a quenched fluorescence probe molecule that hybridizes to the mplified HBV DNA. For each PCR amplification, a standard curve was simultaneously generated using dilutions of purified HBV DNA. Antiviral activity was calculated from the reduction in HBV DNA levels (% virus control). A novel dye uptake assay was then employed to measure cell viability, which is used to calculate toxicity (% cell control).

| Compound | IFNγ spleen cells; TH1 response (% of control) [2] | IL-2 spleen cells (% of control) [2] | IL-4 spleen cells; TH2 response (% of control) [2] | IL-5 spleen cells; TH2 response (% of control) [2] | TNF-a spleen cells; TH1 response (% of control) [2] | inhibition of HCMV plaque formation as compared to the virus control experiment (HCMV strain AD169) | induction of phagocytosis as compared to the control experiment (RAW 264.7 cells) | inhibition of the tube formation of human endothelial cells (HUVEC) | antiviral activity of positive control compounds (HIV-1) (HIV-1IIIB) | other results |
| --- | --- | --- | --- | --- | --- | --- | --- | --- | --- | --- |
| His-Ser-Gly-Pro-Arg-Arg-Thr-Gln-Ala-Gln-Leu-Leu-Arg-Val-Gly-Cys-Val-Leu-Gly-Thr-Cys-Gln-Val-Gln-Asn-Leu-Ser-His-Arg-Leu-Trp-Gln-Leu-Met-Gly-Pro-Ala-Gly-Arg-Gln-Asp-Ser-Ala-Pro-Val-Asp-Pro-Ser-Ser-Pro-His-Ser-Tyr-NH2 (HSGPRRTQAQLLRVGCVLGTCQVQNLSHRLWQLMGPAGRQDSAPVDPSSPHSY-NH2; cysteine pairing not given here) [peptide 1] | 21.7 % of control | 75.6 % of control | 166.9 % of control | 34.5 % of control | 70.0 % of control | 1.8% | did not induce phagocytosis | 19% |  | inhibition of the migration of endothelial cells [1]: 8% |
| Thr-Gln-Ala-Gln-Leu-Leu-Arg-Val-Gly-Cys-Val-Leu-Gly-Thr-Cys-Gln-Val-Gln-Asn-Leu-Ser-His-Arg-Leu-Trp-Gln-Leu-Met-Gly-Pro-Ala-Gly-Arg-Gln-Asp-Ser-Ala-Pro-Val-Asp-Pro-Ser-Ser-Pro-His-Ser-Tyr-NH2 [peptide 2] | 19.1 % of control | 98.9 % of control | 0.0 % of control | 17.9 % of control | 66.7 % of control | 0.7% | 34.3% | 12% |  | induction of the migration of human endothelial cells [1]: 19%; inhibition of HBV replication as compared to the virus control infection [3]: no effect |
| CC(C)(C)NC(=O)[C@@H]1CN(Cc2cccnc2)CCN1C[C@@H](O)C[C@@H](Cc1ccccc1)C(=O)N[C@H]1c2ccccc2C[C@H]1O [indinavir] |  |  |  |  |  |  |  |  | expected levels of antiviral activity |  |
| Nc1nc(O)c2ncn(COC(CO)CO)c2n1 [Ganciclovir, reference compound] |  |  |  |  |  |  |  |  |  | antiviral activity of positive control compound (HCMV) (HCMV strain AD169; positive control, HCMV AD169): expected levels of antiviral activity |
| Cc1cn([C@H]2C[C@H](N=[N+]=[N-])[C@@H](CO)O2)c(=O)[nH]c1=O [AZT] |  |  |  |  |  |  |  |  | expected levels of antiviral activity |  |
